Measurements as given in patent US12629345B2, “Methods, compositions, and devices for drug / live cell microarrays” (Pathak Holdings LLC, priority 2013, dated 2026).
Entries after “also recorded” stand apart in the source; their conditions may differ. Where a name gives a salt, the structure may show the parent alone.

How the values were obtained:
Assay type in all cases: physicochemical
[1] = Bupivacaine base release from PLGA microimplants formed with oscillating needle in bovine pericardium; details: PDLG 5002 in DMSO infused by oscillating needle, PBS 37 degree C.
Procedure: Oscillating needle such as tattoo needle may be used to create cavities in the tissue or skin. A commercial tattoo machine as described in the related application (U.S. Pat. No. 9,072,678, cited herein for reference only) is used. The 500-1000 micron size tattoo needle is used and the oscillation frequency was 10 to 12000 oscillations per minute. About 1 square centimeter area was treated with the tattoo needle for 1 minute. The pores created by the tattoo machine repeated needle insertion were used to fill the injectable composition such PLGA solutions with the drug as described before. Alternatively, polymer solution is first applied on the tissue surface to form a solution layer and then the tattoo needle is used to create holes through the solution. The needle goes in and out of the tissue surface and carries the solution with it inside the cavity created. The deposited solution inside the cavity is precipitated by the tissue fluids and the precipitated polymer releases the drug in a sustained manner. Additional information about tattoo based methods can be found on related applications cited herein for reference only. […] The concentration of bupivacaine in the eluted samples is monitored using UV spectrophotometer. […]

[2] = Bupivacaine hydrochloride release from in situ PLGA implant with and without magnesium carbonate filler; details: FIG. 21B
Procedure: 100.2 mg PDLG 5002 polymer is dissolved in 1.0 ml DMSO. 10 microliters of methylene blue stock solution (10 mg methylene blue in 2 ml DMSO) is added to the polymer solution as a colorant. Infusion solutions are prepared using the following method: 15.2 mg bupivacaine hydrochloride and 0.50 ml polymer solution are mixed until drug is completely dissolved. 50 mg magnesium carbonate powder (fine powder sieved to collect fraction below 300 microns in size) is added as a biocompatible and biodegradable filler in the drug solution and the mixture is vigorously vortexed for 5 minutes. The magnesium carbonate suspension is infused/tattooed using an oscillating needle in 1 cm square area of sheep skin tissue. Excess solution from the tattooed surface is wiped off. The light blue tattoo with magnesium particles is clearly seen the by unaided naked eye.
Similarly, a polymer solution without magnesium carbonate is prepared and infused/tattooed in the sheep skin tissue as above. The infused tissue sample is cut and used in controlled release experiment.
The cut samples are placed in 3 mL of PBS (pH 7.4). The drug eluted PBS is collected at several time points. Fresh PBS is added to replace the eluted PBS solution. The collected PBS is analyzed using a UV spectrophotometer to determine the drug concentration.

[3] = Rifampin release from encapsulated microspheres in microimplant array in sheep skin tissue; details: PLGA microspheres in glycerol, 33 MP array, PBS 37 degree C., FIG. 14
Procedure: Rifampin containing red/yellow microspheres are prepared using spray drying method or prepared according to Example 3. Microspheres are prepared using PLGA polymer (PDLG 5002 from Purac) polymer with 20 percent rifampin loading relative to the polymer plus drug weight. Control PLGA microspheres without rifampin are prepared under identical spry drying conditions. 4.9 mg of rifampin encapsulated microspheres are suspended in 0.25 ml glycerol. One/two drops of the suspension are added on the 2 by 2 cm glutaraldehyde fixed sheep tissue. The 33 MP microarray needles are pressed on the tissue via rifampin suspension to create 3 by 3 micro array cavities and infuse the cavities with the rifampin microspheres. The procedure is repeated 9 times on the same tissue at different locations to create 135 micro cavities loaded with rifampin microspheres. The excess suspension is wiped of using tissue paper. No loosely adherent microspheres in the tissue are noticed. The glycerol in the suspension is dissipated in the tissue leaving behind the microspheres in the cavities. […] The rifampin treated tissue and control tissue are incubated at 37 degree C. in 3 ml PBS and rifampin in treated and control samples is monitored at various time points. Rifampin concentration in the eluted samples is analyzed using UV-VIS spectrophotometer (wavelength 474 nm).

SMILES: CCCCN1CCCCC1C(=O)Nc1c(C)cccc1C (centres unmarked) [bupivacaine base, bupivacaine]
- sustained release of bupivacaine base from in situ formed implant ([1]; FIG. 13): several days
- sustained release of bupivacaine base from in situ formed implant ([1]; FIG. 13, listed as bupivacaine): released in a sustained manner; also recorded: few days

SMILES: CCCCN1CCCCC1C(=O)Nc1c(C)cccc1C (centres unmarked) [bupivacaine hydrochloride]
- duration of release of bupivacaine hydrochloride ([2]; PLGA array implant with magnesium carbonate filler, hydrochloride): several days; also recorded: much longer sustained release
- duration of release of bupivacaine hydrochloride ([2]; PLGA array implant without magnesium carbonate): one to two days

SMILES: CO[C@H]1/C=C/O[C@@]2(C)Oc3c(C)c(O)c4c(O)c(c(/C=N/N5CCN(C)CC5)c(O)c4c3C2=O)NC(=O)/C(C)=C\C=C\[C@H](C)[C@H](O)[C@@H](C)[C@@H](O)[C@@H](C)[C@H](OC(C)=O)[C@@H]1C [rifampin]
- release of rifampin from microspheres in microimplant array [3]: sustained release
